In patent US20220315577A1, “NEW EGFR INHIBITORS” (Hoffmann-La Roche Inc., priority 2019, published 2022) one finds IC50 data, which are given here for 3 molecules.

The assay deals with T1, EGFR TMLRCS (T790M/L858R/C797S), BaF3-TMLRCS cell line (Homo sapiens, UniProt P00533, C797S/L858R/T790M).
T1 construct: host or cells: BaF3 (BaF3-TMLRCS, puromycin selection)
Description: HTRF Phospho EGFR TMLRCS assay (cellular). It counts as cell-based. The settings on record: BaF3-TMLRCS cells, 4 hours incubation, Phospho-EGFR HTRF readout. The method, then:
HTRF Phospho EGFR TMLRCS Assay (Cellular)
BaF3-TMLRCS cell line were obtained from Crownbio (San Diego, Calif., USA). Cells were maintained at 37° C., 5% CO2 in RPMI ATCC (Gibco 31870)+2 mM Glutamine+0.5 μg/ml Puromycin supplemented with 10% fetal bovine serum (FBS) (Gibco).
Cells are transferred as above to Greiner Bio-One, Nr. 784-08 micro-titerplate at 20000 cells/well in 12.5 μl of growth medium/well after the plates had been pre-filled with 12.5 nl of DMSO solutions of the to be tested compounds (in dose response) or DMSO only. After spinning the plates at 300×g for 30 seconds the cells were incubated for 4 hours at 37 C, 5% CO2, 95% humidity. The cells were lysed by adding to the compound mix 4 μl/well of the supplemented lysis buffer (Cis-bio, Phospho-EGFR HTRF kit, 64EG1PEH), followed by incubation for 30 min at room temperature with shaking (400 rpm). The plates were then frozen and stored overnight at −80 C. On the next day and after thawing the plates, 4 μl of a mixture of anti-Phospho-EGFR Cryptate and of anti-Phospho-EGFR-d2 antibody solutions prepared in the supplied detection buffer was added to each well. The lidded plates were then incubated for 4 h at room temperature before reading the fluorescence emission at 616 and 665 nm using an Envision reader (Perkin Elmer). Data was analyzed in similar fashion as above using the normalized ratio of the 665 to 616 signals multiplied by 10000.
In general terms: Time-resolved FRET reads energy transfer from a long-lived donor to a nearby acceptor.

T1 sequence (P00533 25-1210 T790M/C797S/L858R): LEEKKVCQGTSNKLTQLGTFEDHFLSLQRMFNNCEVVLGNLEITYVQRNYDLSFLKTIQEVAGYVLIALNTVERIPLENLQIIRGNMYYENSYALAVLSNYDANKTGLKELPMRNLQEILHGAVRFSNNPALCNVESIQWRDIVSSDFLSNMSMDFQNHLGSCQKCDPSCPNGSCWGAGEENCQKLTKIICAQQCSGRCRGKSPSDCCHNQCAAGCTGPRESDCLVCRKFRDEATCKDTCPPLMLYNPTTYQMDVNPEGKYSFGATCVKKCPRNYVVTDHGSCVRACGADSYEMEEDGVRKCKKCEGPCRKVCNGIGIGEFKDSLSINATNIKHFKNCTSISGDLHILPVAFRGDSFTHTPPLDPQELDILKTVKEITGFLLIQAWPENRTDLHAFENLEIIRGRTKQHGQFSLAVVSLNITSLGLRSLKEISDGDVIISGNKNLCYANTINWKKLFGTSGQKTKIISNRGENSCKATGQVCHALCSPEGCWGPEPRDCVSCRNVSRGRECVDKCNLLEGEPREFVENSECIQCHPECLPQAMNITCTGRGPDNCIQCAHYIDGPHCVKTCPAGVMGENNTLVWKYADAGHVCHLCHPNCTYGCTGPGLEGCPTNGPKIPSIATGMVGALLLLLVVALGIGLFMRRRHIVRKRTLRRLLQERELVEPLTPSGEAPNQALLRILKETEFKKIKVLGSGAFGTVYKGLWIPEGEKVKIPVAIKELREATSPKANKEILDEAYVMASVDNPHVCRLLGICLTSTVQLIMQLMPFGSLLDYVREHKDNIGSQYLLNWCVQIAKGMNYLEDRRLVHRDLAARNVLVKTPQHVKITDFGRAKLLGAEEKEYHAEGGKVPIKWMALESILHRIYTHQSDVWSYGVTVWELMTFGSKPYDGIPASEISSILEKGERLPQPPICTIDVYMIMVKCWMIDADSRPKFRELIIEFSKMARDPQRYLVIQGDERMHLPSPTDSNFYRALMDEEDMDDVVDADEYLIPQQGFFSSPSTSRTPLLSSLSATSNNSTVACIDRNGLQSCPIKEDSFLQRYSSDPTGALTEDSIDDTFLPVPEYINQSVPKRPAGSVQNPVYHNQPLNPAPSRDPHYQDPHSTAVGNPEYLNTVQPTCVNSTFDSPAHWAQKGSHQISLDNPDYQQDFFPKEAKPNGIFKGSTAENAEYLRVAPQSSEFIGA

As a reminder, the IC50 is the midpoint of a concentration-inhibition curve. A higher IC50 goes with weaker potency. As for `CCN1CCC(c2ccc(-c3cc(F)c4c(c3)C(=O)N(C(C(=O)Nc3nccs3)c3cc(F)ccc3O)C4)cc2)CC1` (racemic) [Example 1, (2RS)-2-[6-[4-(1-Ethyl-4-piperidyl)phenyl]-4-fluoro-1-oxo-isoindolin-2-yl]-2-(5-fluoro-2-hydroxy-phenyl)-N-thiazol-2-yl-acetamide], the IC50 is 12 nM. The figure for `CCN1CCC(c2ccc(-c3cc(F)c4c(c3Cl)C(=O)N(C(C(=O)Nc3nccs3)c3cc(F)ccc3O)C4)cc2)CC1` (racemic) [Example 2, (2RS)-2-[7-Chloro-6-[4-(1-ethyl-4-piperidyl)phenyl]-4-fluoro-1-oxo-isoindolin-2-yl]-2-(5-fluoro-2-hydroxy-phenyl)-N-thiazol-2-yl-acetamide] is 11 nM; for `O=C(Nc1nccs1)C(c1cc(F)ccc1O)N1Cc2c(F)cc(-c3ccc(C4CCN(CCF)CC4)cc3)cc2C1=O` (racemic) [Example 3, (2RS)-2-[4-Fluoro-6-[4-[1-(2-fluoroethyl)-4-piperidyl]phenyl]-1-oxo-isoindolin-2-yl]-2-(5-fluoro-2-hydroxy-phenyl)-N-thiazol-2-yl-acetamide] it is 9 nM.
